Patent US20260240880A1, “AGENT FOR AMELIORATING OR TREATING DEMENTIA, PRIMARILY ALZHEIMER'S DEMENTIA” (HOMO C[…] AND DEVELOPMENT INSTITUTE, priority 2023, published 2026)
Entries after “also recorded” stand apart in the source; their conditions may differ.

Columns and labels:
[1] = test system: Alzheimer's dementia model mouse (APPosk); test: Morris water maze test (escape latency); format: in vivo; conditions: APPosk mice; for Memory improvement effect in the Morris water maze test: i.p. once daily for 168 days (24 weeks), tested at 48 weeks of age; for Memory effect in the Morris water maze test at low dose: low dose 0.9 mg/kg i.p. once daily for 24 weeks
Description: (§1) Sixty-eight APPosk (SPF) male mice were produced according to the method described in Tomiyama T., Nagata T., Shimada H., Teraoka R., Fukushima A., Kanemitsu H., Takuma H., Kuwano R., Imagawa M., Ataka S., Wada Y., Yoshioka E., Nishizaki T., Watanabe Y., Mori H. A new amyloid β variant favoring oligomerization in Alzheimer's-type dementia. Ann. Neurol. 63, 377-387 (2008) at BioSafety Research Center Inc. (BSRC), which has a track record in producing model mice, and were raised until 24 weeks of age. These mice were then delivered to New Drug Research Center, Inc. and acclimatized until the preliminary breeding period. Note that quarantine was carried out from the date of arrival, considered as Day 0, up to Day 7. General observations were made daily, and body weights were measured on Day 1 (the day following the arrival), Day 3, and Day 7 after the arrival. Each individual was placed in a polysulfone cage and kept in an animal breeding room under conditions of a temperature of 22° C.±3° C., a humidity of 50%±20%, and a 12-hour light/dark cycle.
(§2) Of the 16 wild-type mice that arrived, 10 with weights close to the average were selected to form the normal group. Sixty-eight APPosk mice were delivered and assigned by stratified continuous randomization to the following groups: Pathological; Pathological+2ccPA (L); Pathological+2ccPA (H); Pathological+2cLPA (L); and Pathological+2cLPA (H). L: Low dose (0.9 mg/kg); H: High dose (1.8 mg/kg)
(§3) The dosing solution was filled into a syringe (disposable syringe) equipped with a 26G needle, and administered intraperitoneally once daily for 168 days (24 weeks). On the day when the Morris water maze test was performed, the dosing solution was administered after the Morris water maze test.
When the mice reached 12 months of age (48 weeks of age), the Morris water maze test was performed.
The water maze (diameter: 90 cm; height: 60 cm; water temperature: approximately 22° C.) was made opaque with a white non-toxic paint (skim milk) and divided into four virtual quadrants (east, west, north, and south). A circular platform having a diameter of 8 cm was submerged approximately 1 cm below the water surface and placed near the center of the north quadrant. Black markers were placed on the walls of the water maze as extramaze cues.
The time it took to reach the platform placed in the water maze (escape latency) was measured over 4 days. Each animal underwent five consecutive trials, with an interval of approximately 20 seconds between the end and start of each trial.
Each trial began with the mouse being placed in any quadrant except the north quadrant, with its face facing the outer edge of the water maze. A webcam (Logicool HD Webcam C615) and SMART v3.0 (Panlab Harvard Apparatus) were used for measurement and analysis. […]

[2] = test system: tau protein and phosphorylated tau protein; test: Quantitative determination of tau protein and phosphorylated tau protein (immunostaining of brain sections); format: in vivo, mouse; conditions: for Suppression of phosphorylation of tau protein: APPosk mice, low dose; for Phosphorylated tau (Ser396) area/Hippocampus area (average) / Phosphorylated tau (Ser404) area/Hippocampus area (average) / Tau protein area/Hippocampus area (average) / Phosphorylated tau (Ser396) area/Hippocampus area / Phosphorylated tau (Ser404) area/Hippocampus area / Tau protein area/Hippocampus area: APPosk-Tg mice, low dose (L) 0.9 mg/kg; for Phosphorylated tau (Ser396) area/Hippocampus area / Phosphorylated tau (Ser404) area/Hippocampus area / Tau protein area/Hippocampus area: range; for Tau protein area/Hippocampus area: five sections
Description: After exsanguination, 6 of the 10 individuals in each group (with numbers ending in 1 to 6) were perfused with phosphate-buffered saline (PBS) and then perfused again with 4% paraformaldehyde (PFA) to fix the brains, after which the brains were removed. The extracted brains were then infiltrated and fixed using the same fixative solution. The remaining four individuals in each group (with numbers ending in 7 to 10) were perfused whole body with PBS, and then their brains were extracted and frozen using liquid nitrogen.
Serial sections (thickness: 40 μm) of fixed mouse […] were prepared using a cryostat. The sections were incubated overnight with primary antibodies and then for 1 hour with secondary antibodies. Stained images were then captured using a confocal microscope (Carl Zeiss) and quantified using NIH ImageJ. The primary antibodies used were non-phosphorylated tau antibody (Invitrogen), phosphorylated tau (Ser396) antibody (Invitrogen), and phosphorylated tau (Ser404) antibody (Invitrogen), and the secondary antibodies used were biotinylated goat anti-mouse IgG antibody (Vector Lab.) and biotinylated goat anti-rabbit IgG antibody (Vector Lab.). Quantitative determination was carried out using five sections each.
Quantitative determination of tau protein and phosphorylated tau protein in the hippocampus of normal, pathological, pathological+2ccPA (low dose), and pathological+2cLPA (low dose) mice

[3] = In vivo hippocampal microdialysis with LC/MS determination of 2ccPA (blood-brain barrier crossing); set-up: species or system mouse; conditions: 0.9 mg/kg i.p.; for 2ccPA concentration in microdialysis recovery fluid: hippocampus
Protocol: To confirm that 2ccPA crosses the blood-brain barrier (BBB) and enters the brain, an experiment was conducted at the Kurume Modality Analysis Laboratory of BioSafety Research Center Inc. (BSRC), which has a long track record in microdialysis, and the Institute for Disease Modeling, Kurume University School of Medicine.
2ccPA was administered intraperitoneally to 33-week-old male C57BL/6J-Aged mice (SPF, Jackson Laboratory Japan, Inc.) with a dialysis probe (FX-I-4-02, EICOM) placed in the hippocampus of the mouse brain. After that, the brain microdialysis perfusate was collected at […], 1 hour before administration and every 30 minutes (0.5 to 5.0 hours) after administration, using the in vivo microdialysis method.
The hippocampal guide cannula placement surgery was performed under isoflurane anesthesia, with a guide cannula and a dummy cannula placed at the hippocampal coordinate position (AP=−3.1 mm; ML=+2.7 mm; DV=−3.7 mm). After surgery, Vetorphale was administered subcutaneously for analgesia. Three to five days after the cannula was placed, the cannula was replaced with a dialysis probe under isoflurane inhalation anesthesia, and pre-perfusion (perfusion solution: saline containing 0.15% BSA) was then initiated.
2ccPA administration was performed under isoflurane anesthesia. D-PBS(−) containing 0.1% BSA was added to […], and the mixture was dispersed by ultrasonic treatment, thereby preparing a dosing solution.
The dosing solution was diluted with D-PBS(−) containing 0.1% BSA to a concentration of 0.9 mg/kg/day, and then sonicated individually just immediately administration. The administration route was intraperitoneal administration.
The microdialysis perfusate was collected at 11 time points: 1 hour before administration and 0.5, 1.0, 1.5, 2.0, 2.5, 3.0, 3.5, 4.0, 4.5, and 5.0 hours after administration, and each was collected into ice-cooled siliconized tubes.
Five mice in each test group underwent hippocampal cannula placement surgery, replacement with a dialysis probe, administration of the test substance, and collection of the microdialysis perfusate. The collected solution was added to an ice-cold acid-methanol solution (pH 4), stirred, and then promptly frozen in liquid nitrogen and stored at −80° C.
The concentration of 2ccPA in the perfusate collected by microdialysis from mice administered with 2ccPA was measured using LC/MS. The conditions are as follows: Shimizu Y., Fukasawa K., Yamamoto S., Shibike Y., Tsukahara R., Ishikawa M., Iwasa K., Yoshikawa K., Gotoh M., Murakami-Murofushi K. Evaluation of the pharmacokinetics of 2-carba-cyclic phosphatidic acid by liquid chromatography-triple quadrupole mass spectrometry
The standard solution for the calibration curve was prepared by adding ethanol to the standard substance, 2ccPA, dissolving it, and then mixing it with the blank matrix. The internal standard solution (IStd) was prepared by adding ultrapure water to the internal standard substance (ranitidine hydrochloride), dissolving it, and then diluting it with ultrapure water (10 ng/mL). The measurement specimen (microdialysis perfusate) was prepared by adding an acidic methanol solution (pH 4) in an amount five times the volume of the sample.
The measurement samples (the measurement specimen and the standard solution for the calibration curve) were deproteinized by adding a specimen treatment solution containing the internal standard solution to each sample. After centrifugation, the supernatant was filtered, and the 2ccPA concentration was measured using a Q Exactive Ultimate 3000 system (Thermo Scientific), thereby yielding the following results.

[4] = Body weight measurement once a week during 24 weeks of daily administration; format: in vivo, mouse; set-up: Weight change / Weight change (average): unit not given here; conditions: APPosk mice; for Weight loss after 24 weeks of daily administration: i.p. once daily, 0.9 or 1.8 mg/kg; for Weight change: range
Description: as §1, §2, §3
Body weight was measured using an electronic balance once a week. Each time, the measurement was carried out twice at different times.

[5] = high dose (H) 1.8 mg/kg i.p. once daily for 24 weeks
[6] = low dose (L) 0.9 mg/kg i.p. once daily for 24 weeks

Row | Compound | Memory improvement effect in the Morris water maze test [1] | Suppression of phosphorylation of tau protein [2] | Phosphorylated tau (Ser396) area/Hippocampus area (average) [2] | Phosphorylated tau (Ser404) area/Hippocampus area (average) [2] | Tau protein area/Hippocampus area (average) [2] | Phosphorylated tau (Ser396) area/Hippocampus area [2] | Phosphorylated tau (Ser404) area/Hippocampus area [2] | Tau protein area/Hippocampus area [2] | Weight loss after 24 weeks of daily administration [4] | Weight change (average) [4, 5] | Weight change (average) [4, 6] | Weight change [4, 5] | Weight change [4, 6] | also measured
1 | CCCCCCCCC=CCCCCCCCC(=O)OCC1COP(=O)(O)C1 (stereo not shown) [2ccPA, oleoyl-2-carba-cPA] | significantly improved memory; also recorded: significantly improve memory decline | significantly suppress the phosphorylation of tau protein | (2.3) % | (0.5) % | (17.4) % | 2.0-4.9% | 0.4-1.7% | 7.7-19.5% | No weight loss was observed | 32.1 | 32.3 | 30.6-32.8 | 31.4-33.6 | Memory effect in the Morris water maze test at low dose ([1]; 0.9 mg/kg): memory maintenance effect comparable to that of the normal group; also recorded: clear effects; 2ccPA concentration in microdialysis recovery fluid ([3]; 0.5 hours after administration): 1.90 ng/mL; 2ccPA concentration in microdialysis recovery fluid ([3]; 1.0 hours after administration): 2.22 ng/mL; 2ccPA concentration in microdialysis recovery fluid ([3]; 1.5 hours after administration): 2.81 ng/mL; 2ccPA concentration in microdialysis recovery fluid ([3]; 2.0 hours after administration): 2.24 ng/mL; 2ccPA concentration in microdialysis recovery fluid ([3]; 2.5 hours after administration): 1.64 ng/mL; 2ccPA concentration in microdialysis recovery fluid ([3]; 3.0 hours after administration): 1.80 ng/mL; 2ccPA concentration in microdialysis recovery fluid ([3]; 3.5 hours after administration): 2.32 ng/mL; 2ccPA concentration in microdialysis recovery fluid ([3]; 4.0 hours after administration): 2.12 ng/mL; 2ccPA concentration in microdialysis recovery fluid ([3]; 4.5 hours after administration): 2.12 ng/mL; 2ccPA concentration in microdialysis recovery fluid ([3]; 5.0 hours after administration): 1.22 ng/mL; Crossing of the blood-brain barrier ([3]; mice, hippocampal microdialysis): passed through the barrier of endothelial cells that line the walls of brain capillaries; 2ccPA concentration in microdialysis recovery fluid ([3]; time 0 (before administration), C57BL/6J-Aged mice): 0 ng/mL
2 | oleoyl-2-carba-LPA [2cLPA] | significantly improved memory; also recorded: significantly improve memory decline | significantly suppress the phosphorylation of tau protein | (2.4) % | (1.2) % | (19.0) % | 0.5-4.7% | 0.9-1.8% | 10.6-36.2% | No weight loss was observed | 30.2 | 32.0 | 29.6-31.9 | 30.8-33.3 | Memory effect in the Morris water maze test at low dose [1]: clear effects
